Data as given in US4358441A, “Nicotinic derivatives of glucosamine and related pharmaceutical compositions” (Laboratorio Guidotti & C. S.p.A., priority 1980, dated 1982).

Columns and labels:
plasma levels of FFA = experiment: Effect of oral administration on plasma levels of FFA in the empty rat; conditions: for Percent variations of plasma FFA with respect to the controls / Percent variations of plasma FFA with respect to the control: empty rat; for Percent variations of plasma FFA with respect to the control: Table 5, 100 mg/kg oral referred to nicotinic acid
[1] = system: plasma levels of cholesterol; experiment: Effect of oral administration on plasma levels of cholesterol in the empty rat; assay type: in vivo, rat (COBS CD (SD) BR male); conditions: for Percent variations of plasma cholesterol with respect to the controls: 100 mg/kg oral referred to nicotinic acid; for Percent variations of plasma cholesterol with respect to the controls / Percent variations of plasma cholesterol with respect to the control: empty rat; for Percent variations of plasma cholesterol with respect to the control: Table 5, 100 mg/kg oral referred to nicotinic acid
[2] = system: plasma levels of triglycerides; experiment: Effect of oral administration on plasma levels of triglycerides in the empty rat; assay type: in vivo, rat (COBS CD (SD) BR male); conditions: for Percent variations of plasma triglycerides with respect to the controls / Percent variations of plasma triglycerides with respect to the control: empty rat; for Time within which the effect on triglycerides disappears: rat; for Percent variations of plasma triglycerides with respect to the control: Table 5, 100 mg/kg oral referred to nicotinic acid
[3] = system: plasma levels of free glycerol; experiment: Effect of oral administration on plasma levels of free glycerol in the empty rat; assay type: in vivo, rat (COBS CD (SD) BR male); conditions: for Percent variations of plasma free glycerol with respect to the controls: empty rat
in vivo = conditions: rat
rats of both sexes = experiment: Acute toxicity (LD50) in rats of both sexes, oral and intraperitoneal route; conditions: rat
Solubility = assay type: physicochemical
[4] = 30 mg/kg oral referred to nicotinic acid, 1 h
[5] = 30 mg/kg oral referred to nicotinic acid, 2 h
[6] = 30 mg/kg oral referred to nicotinic acid, 4 h
[7] = 30 mg/kg oral referred to nicotinic acid, 6 h
[8] = 100 mg/kg oral referred to nicotinic acid, 2 h
[9] = 100 mg/kg oral referred to nicotinic acid, 4 h
[10] = 100 mg/kg oral referred to nicotinic acid, 6 h
[11] = 100 mg/kg oral referred to nicotinic acid, 8 h
[12] = 100 mg/kg oral referred to nicotinic acid, 10 h
[13] = 100 mg/kg oral referred to nicotinic acid, 16 h
[14] = 100 mg/kg oral referred to nicotinic acid, 24 h
[15] = 30 mg/kg oral referred to nicotinic acid, 8 h
[16] = 30 mg/kg oral referred to nicotinic acid, 10 h
[17] = 30 mg/kg oral referred to nicotinic acid, 12 h
[18] = 30 mg/kg oral referred to nicotinic acid, 16 h
[19] = 100 mg/kg oral referred to nicotinic acid, 32 h

## O=C(N[C@H]1C(OC(=O)c2cccnc2)O[C@H](COC(=O)c2cccnc2)[C@@H](OC(=O)c2cccnc2)[C@@H]1OC(=O)c1cccnc1)c1cccnc1 (stereo partly drawn) [GLUN, N-nicotinoyl-glucosamine tetranicotinate]
Plasma levels of FFA; [4]
  Percent variations of plasma FFA with respect to the controls: -33%
Plasma levels of FFA; [5]
  Percent variations of plasma FFA with respect to the controls: -67%
Plasma levels of FFA; [6]
  Percent variations of plasma FFA with respect to the controls: -3%
Plasma levels of FFA; [7]
  Percent variations of plasma FFA with respect to the controls: -16%
Plasma levels of FFA; 30 mg/kg oral, rat
  Depression of plasma FFA: still active in the second hour
Plasma levels of FFA; [8]
  Percent variations of plasma FFA with respect to the controls: -74%
Plasma levels of FFA; [9]
  Percent variations of plasma FFA with respect to the controls: -41%
Plasma levels of FFA; [10]
  Percent variations of plasma FFA with respect to the controls: -28%
Plasma levels of FFA; [11]
  Percent variations of plasma FFA with respect to the controls: -43%
Plasma levels of FFA; [12]
  Percent variations of plasma FFA with respect to the controls: -40%
Plasma levels of FFA; [13]
  Percent variations of plasma FFA with respect to the controls: -7%
Plasma levels of FFA; [14]
  Percent variations of plasma FFA with respect to the controls: -2%
Plasma levels of FFA; 100 mg/kg oral, rat
  Time within which the effect on FFA disappears: ≤ 16 h
[1]; 4 h
  Percent variations of plasma cholesterol with respect to the controls: +9%
[1]; 6 h
  Percent variations of plasma cholesterol with respect to the controls: -4%
[1]; 8 h
  Percent variations of plasma cholesterol with respect to the controls: -13%
[1]; 10 h
  Percent variations of plasma cholesterol with respect to the controls: -29%
[1]; 16 h
  Percent variations of plasma cholesterol with respect to the controls: -53%
[1]; 24 h
  Percent variations of plasma cholesterol with respect to the controls: -37%
[1]; 32 h
  Percent variations of plasma cholesterol with respect to the controls: -42%
[1]; 48 h
  Percent variations of plasma cholesterol with respect to the controls: -29%
[1]; 100 mg/kg oral, rat
  Cholesterol lowering effect with respect to that of the reference standards: constantly more relevant
  Lowering of cholesterolemy: depresses the cholesterolemy from the eighth to the fortyeighth hour
[2]; [4]
  Percent variations of plasma triglycerides with respect to the controls: -2%
[2]; [5]
  Percent variations of plasma triglycerides with respect to the controls: -45%
[2]; [6]
  Percent variations of plasma triglycerides with respect to the controls: -44%
[2]; [7]
  Percent variations of plasma triglycerides with respect to the controls: -41%
[2]; [15]
  Percent variations of plasma triglycerides with respect to the controls: -36%
[2]; [16]
  Percent variations of plasma triglycerides with respect to the controls: -62%
[2]; [17]
  Percent variations of plasma triglycerides with respect to the controls: -31%
[2]; [18]
  Percent variations of plasma triglycerides with respect to the controls: +31%
[2]; 30 mg/kg oral
  Time within which the effect on triglycerides disappears: ≤ 16 h
[2]; [8]
  Percent variations of plasma triglycerides with respect to the controls: -52%
[2]; [9]
  Percent variations of plasma triglycerides with respect to the controls: -65%
[2]; [10]
  Percent variations of plasma triglycerides with respect to the controls: -72%
[2]; [11]
  Percent variations of plasma triglycerides with respect to the controls: -75%
[2]; [12]
  Percent variations of plasma triglycerides with respect to the controls: -65%
[2]; [13]
  Percent variations of plasma triglycerides with respect to the controls: -67%
[2]; [14]
  Percent variations of plasma triglycerides with respect to the controls: 3%
[2]; [19]
  Percent variations of plasma triglycerides with respect to the controls: +13%
[2]; 100 mg/kg oral
  Time within which the effect on triglycerides disappears: within the twenty fourth hour
[3]; [4]
  Percent variations of plasma free glycerol with respect to the controls: -27%
[3]; [5]
  Percent variations of plasma free glycerol with respect to the controls: -63%
[3]; [6]
  Percent variations of plasma free glycerol with respect to the controls: -7%
[3]; [7]
  Percent variations of plasma free glycerol with respect to the controls: -17%
[3]; [15]
  Percent variations of plasma free glycerol with respect to the controls: -25%
[3]; [16]
  Percent variations of plasma free glycerol with respect to the controls: -4%
[3]; [17]
  Percent variations of plasma free glycerol with respect to the controls: -5%
[3]; [18]
  Percent variations of plasma free glycerol with respect to the controls: +5%
[3]; 30 mg/kg oral, rat
  Activity on free glycerol: active at the 2nd hour
[3]; [8]
  Percent variations of plasma free glycerol with respect to the controls: -81%
[3]; [9]
  Percent variations of plasma free glycerol with respect to the controls: -47%
[3]; [10]
  Percent variations of plasma free glycerol with respect to the controls: -24%
[3]; [11]
  Percent variations of plasma free glycerol with respect to the controls: -32%
[3]; [12]
  Percent variations of plasma free glycerol with respect to the controls: -41%
[3]; [13]
  Percent variations of plasma free glycerol with respect to the controls: +3%
[3]; [14]
  Percent variations of plasma free glycerol with respect to the controls: 0%
[3]; [19]
  Percent variations of plasma free glycerol with respect to the controls: +16%
[3]; 100 mg/kg oral, rat
  Time within which the effect on free glycerol disappears: within the sixteenth hour
In vivo; ip, female
  LD50: 6750 mg/kg
In vivo; ip, male
  LD50: 6650 mg/kg
In vivo; po, female, os
  LD50: > 8000 mg/kg
In vivo; po, male, os
  LD50: > 8000 mg/kg
Rats of both sexes; intraperitoneal route
  Acute toxicity lower than that of nicotinic acid: 20 times
Rats of both sexes; oral route
  Acute toxicity lower than that of nicotinic acid: 2 times

## O=C(N[C@H]1[C@H](OC(=O)c2cccnc2)O[C@H](COC(=O)c2cccnc2)[C@@H](OC(=O)c2cccnc2)[C@@H]1OC(=O)c1cccnc1)c1cccnc1 [β, β-N-nicotinoyl-glucosamine tetranicotinate]
Plasma levels of FFA; 2 h
  Percent variations of plasma FFA with respect to the control: -67%
Plasma levels of FFA; 4 h
  Percent variations of plasma FFA with respect to the control: -30%
Plasma levels of FFA; 8 h
  Percent variations of plasma FFA with respect to the control: -44%
[1]; 4 h
  Percent variations of plasma cholesterol with respect to the control: -2%
[1]; 8 h
  Percent variations of plasma cholesterol with respect to the control: -17%
[1]; 24 h
  Percent variations of plasma cholesterol with respect to the control: -43%
[2]; 2 h
  Percent variations of plasma triglycerides with respect to the control: -53%
[2]; 4 h
  Percent variations of plasma triglycerides with respect to the control: -77%
[2]; 8 h
  Percent variations of plasma triglycerides with respect to the control: -69%
Solubility
  Solubility: slightly soluble in acetone, ethanol and chloroform, but soluble in dilute acids
